Laboratory results as given in patent US12370164B2, “Chlorogenic acid composition for promoting a healthy body weight” (Vidya Herbs, Inc., priority 2017, dated 2025).
Values joined by “and” are separate entries in the source; they are usually repeats but may differ in a detail not shown here. Equal entries are not always repeated.

Assays:
[1] = system: Salmonella typhimurium TA 98; experiment: Ames Salmonella mutagenicity test, strain TA 98; type: cell-based; conditions: TA 98, +s9, positive control, concentration not given
[2] = system: Salmonella typhimurium TA 100; type: cell-based; conditions: TA 100, +s9, positive control, concentration not given
Description: This assay helps to identify substances that can produce genetic damage that leads to gene mutations. Mutant strains of Salmonella typhimurium that are used in AMES assay cannot synthesize histidine, and are very susceptible to additional mutations because they lack the normal repair mechanisms found in bacteria. These mutant strains are more permeable than wild-type bacteria to external chemicals, including potential mutagens. In order for these cells to survive on a plate that lacks histidine, they must regain the ability to synthesize histidine by undergoing another mutation that corrects the original mutation that prevented the production of the missing enzyme. This type of mutation is known as a back mutation, or reversion, because this second mutation returns the mutant to the wild-type (prototrophic) phenotype. This reversion can happen spontaneously due to incorrect DNA replication or as the result of a mutagen.
In this assay specific strains of the bacteria Salmonella typhimurium (TA 98, TA 100) were used to detect mutations. […]
Briefly, 0.5 ml of S9 mix (or 0.1 M phosphate buffer, pH 7.4), 0.1 ml of bacterial culture and 0.1 ml of test solution (or solvent) were added to each tube. […] After incubation for approximately 48 h the revertant colonies were counted.

[3] = DPPH radical scavenging assay
Procedure: The free radical scavenging capacity of the test sample was determined using DPPH scavenging assay. DPPH solution was prepared in 95% methanol. Freshly prepared DPPH solution was taken in test tubes and different concentration of test samples were added and incubated for 20 min. The absorbance was read at 517 nm using a spectrophotometer. Blank was prepared containing the same volume of reaction mixture without any tested samples. The percentage of scavenging was calculated using the formula: % Scavenging=Ac−As/Ac×100 Where AC was the absorbance of the control (blank) and AS was the absorbance in the presence of the composition (Braca et al., 2001). Results

[4] = Superoxide anion scavenging activity
Procedure: Prepared all the solutions in this experiment using phosphate buffer (pH 7.4). Added 1 ml of NBT (156 μM), 1 ml of NADH (468 μM) and 3 ml of test samples to all test tubes. The reaction was started by adding 100 ml of PMS (60 μM) and incubated the mixture at 25° C. for 5 min followed by measurement of absorbance at 560 nm. The percentage of scavenging was calculated using formula: % Scavenging=Ac−As/Ac×100 Where AC was the absorbance of the control (blank) and As was the absorbance in the presence of the composition.

calf thymus DNA = experiment: Protective effect on DNA scission induced by hydroxyl radical
Procedure: In this assay hydroxyl radicals are typically generated within a mixture of ascorbic acid, H2O2 and Fe3+-ethylenediaminetetracetic acid (EDTA); those radicals that are not scavenged by other components of the reaction mixture will eventually attack deoxyribose, thus degrading it into a series of fragments.
The experiment was conducted using calf thymus DNA. Briefly, the sample was dissolved in ethanol at 1 mg/mL. 50 μl of different concentration of sample was then separately taken into mini tubes followed by addition of 400 μL of phosphate buffer (0.2 mol/L, pH 7.4). Subsequently, 50 μL DNA sodium, 50 μL H2O2, 50 μL FeCl3 and 50 μL Na2EDTA (1 mmol/L) were added. The reaction was initiated by adding 50 μL ascorbic acid (18 mmol/L) and the total volume of the reaction mixture was adjusted to 800 μL with buffer. After incubation in a water bath at 55° C. for 20 min, the reaction was terminated by adding 250 μL TCA.
The color was then developed by addition of 150 μL of TBA and heating in an oven at 105° C. for 15 min. The mixture was cooled and absorbance was measured at 532 nm against the buffer (as blank). The percent of protection against DNA damage is expressed Protective effect %=(1−A/A0)×100 Where A0 is the absorbance of the mixture without sample, and A is the absorbance of the mixture with sample. Results

## Nc1ccc2cc3ccccc3cc2c1 [2AF, 2-aminoanthracene]
[1]
  Revertant colonies/plate: 1560 ± 3.53 colonies/plate
[2]
  Revertant colonies/plate: 2737 ± 4.9 colonies/plate

## O=C1O[C@H]([C@@H](O)CO)C(O)=C1O [Ascorbic acid]
[3]; 20 μg/ml
  % inhibition (DPPH scavenging): 83.21%
  Absorbance @517 nm: 0.046
[3]; 40 μg/ml
  % inhibition (DPPH scavenging): 90.88%
  Absorbance @517 nm: 0.025
[3]; 60 μg/ml
  % inhibition (DPPH scavenging): 94.53%
  Absorbance @517 nm: 0.015
[3]; 80 μg/ml
  % inhibition (DPPH scavenging): 94.89%
  Absorbance @517 nm: 0.014
[3]; 100 μg/ml
  % inhibition (DPPH scavenging): 96.72%
  Absorbance @517 nm: 0.009
[3]; 100 μg/ml, listed as ascorbic acid
  % inhibition (DPPH scavenging): 96.71%
[4]; 20 μg/ml
  % inhibition (superoxide scavenging): 84.80%
  Absorbance @517 nm (superoxide scavenging): 0.038
[4]; 40 μg/ml
  % inhibition (superoxide scavenging): 85.20%
  Absorbance @517 nm (superoxide scavenging): 0.037
[4]; 60 μg/ml
  % inhibition (superoxide scavenging): 88.40%
  Absorbance @517 nm (superoxide scavenging): 0.029
[4]; 80 μg/ml
  % inhibition (superoxide scavenging): 89.20%
  Absorbance @517 nm (superoxide scavenging): 0.027
[4]; 100 μg/ml
  % inhibition (superoxide scavenging): 89.60%
  Absorbance @517 nm (superoxide scavenging): 0.026

## COc1ccc(O)c(C(C)(C)C)c1 [BHA]
Calf thymus DNA; 10 μg/ml
  % protective effect against DNA damage: 15.79 ± 0.89%
Calf thymus DNA; 20 μg/ml
  % protective effect against DNA damage: 19.25 ± 1.09%
Calf thymus DNA; 40 μg/ml
  % protective effect against DNA damage: 32.50 ± 2.12%
Calf thymus DNA; 60 μg/ml
  % protective effect against DNA damage: 39.16 ± 0.33%
Calf thymus DNA; 80 μg/ml
  % protective effect against DNA damage: 43.04 ± 0.29%
Calf thymus DNA; 100 μg/ml
  % protective effect against DNA damage: 51.37% and 51.37 ± 4.06%
